# Test results as given in patent publication US20230263822A1, “MODULATION OF FACTOR 11 EXPRESSION” (Ionis Pharmaceuticals, Inc., priority 2008, published 2023).
# Legend:
# [1] = rat, in vivo, sc, 50 mg/kg
# [2] = rat, in vivo, sc, 50 mg/kg; remark: listed apart in the source
# [3] = rat, in vivo, sc, 50 mg/kg; remark: listed apart in the source
# [4] = system: human Factor 11 mRNA; test: Antisense inhibition of human Factor 11 in HepG2 cells by microwalk gapmers, lipofectin, 75 nM (Example 3); format: cell-based; conditions: HepG2 cells, lipofectin, gapmers targeted to nucleobases 1275 to 1318 of SEQ ID NO: 1
# Outline: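 HepG2 cells (10,000/well) were transfected via lipofectin with 75 nM 20-mer MOE gapmers (phosphorothioate, 5-methyl-C) for about 24 h. Factor 11 mRNA was measured by qRT-PCR, normalized to RIBOGREEN total RNA, and given as percent inhibition versus untreated cells.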
# [5] = system: human Factor 11 mRNA; test: Antisense inhibition of human Factor 11 in HepG2 cells, electroporation, 8,000 nM (Example 30); format: cell-based; conditions: electroporation, 8,000 nM antisense oligonucleotide
# Outline: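 HepG2 cells electroporated with 8,000 nM 5-10-5, 5-8-5 or 6-8-6 MOE gapmers (phosphorothioate, 5-methylcytidine), ~24 h. Factor 11 mRNA quantified by qRT-PCR, normalised to RIBOGREEN total RNA. Reported as percent inhibition versus untreated cells.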
# [6] = design: species or system CD1 mice; conditions: mouse, in vivo, sc, 50 mg/kg
# Method: The concentration of the full-length oligonucleotide was measured. The method used is a modification of previously published methods (Leeds et al., 1996; Geary et al., 1999) which consist of a phenol-chloroform (liquid-liquid) extraction followed by a solid phase extraction. An internal standard (ISIS 355868, a 27-mer 2′-O-methoxyethyl modified phosphorothioate oligonucleotide, […], designated herein as SEQ ID NO: 270) was added prior to extraction. […] The results are presented in Table 85 expressed as μg/g liver tissue.
# [7] = design: species or system Sprague-Dawley rats; conditions: rat, in vivo, sc, 20 mg/kg
# Method: The concentration of the full-length oligonucleotide as well as the total oligonucleotide concentration (including the degraded form) was measured. The method used is a modification of previously published methods (Leeds et al., 1996; Geary et al., 1999) which consist of a phenol-chloroform (liquid-liquid) extraction followed by a solid phase extraction. An internal standard (ISIS 355868, a 27-mer 2′-O-methoxyethyl modified phosphorothioate oligonucleotide, […], designated herein as SEQ ID NO: 270) was added prior to extraction. […] The results are presented in Tables 91 and 92, expressed as μg/g liver or kidney tissue. Half-lives were then calculated using WinNonlin software ([…]).
# [8] = Viscosity of ISIS antisense oligonucleotides, micro-viscometer at 25 °C (Example 47); format: physicochemical; conditions: for Concentration: concentration of the viscosity sample, UV reading at 260 nM at 85° C.; for Viscosity: in water, micro-viscometer at 25° C., at the concentration of the same line
# Method: The viscosity of antisense oligonucleotides targeting human Factor 11 was measured with the aim of screening out antisense oligonucleotides which have a viscosity more than 40 cP at a concentration of 165-185 mg/mL.
# ISIS oligonucleotides (32-35 mg) were weighed into a glass vial, 120 μL of water was added and the antisense oligonucleotide was dissolved into solution by heating the vial at 50° C. Part of (75 μL) the pre-heated sample was pipetted to a micro-viscometer (Cambridge). The temperature of the micro-viscometter was set to 25° C. and the viscosity of the sample was measured. Another part (20 μL) of the pre-heated sample was pipetted into 10 mL of water for UV reading at 260 nM at 85° C. (Cary UV instrument).
# [9] = system: human Factor 11 mRNA; test: Dose-dependent inhibition of human Factor 11 in HepG2 cells, electroporation 123.46-10,000 nM (Example 31); format: cell-based; conditions: for Percent inhibition of Factor 11 mRNA at 123.47 nM / Percent inhibition of Factor 11 mRNA at 370.37 nM / IC50: electroporation; for Percent inhibition of Factor 11 mRNA at 123.47 nM / Percent inhibition of Factor 11 mRNA at 370.37 nM / Percent inhibition of Factor 11 mRNA at 1,111.11 nM / Percent inhibition of Factor 11 mRNA at 3,333.33 nM / Percent inhibition of Factor 11 mRNA at 10,000.0 nM: approx. 16 hours, relative to untreated control cells; for Percent inhibition of Factor 11 mRNA at 1,111.11 nM: electroporation, 1,111.11 nM; for Percent inhibition of Factor 11 mRNA at 3,333.33 nM: electroporation, 3,333.33 nM; for Percent inhibition of Factor 11 mRNA at 10,000.0 nM: electroporation, 10,000.0 nM; for IC50: Factor 11 mRNA expression
# Method: Cells were plated at a density of 20,000 cells per well and transfected using electroporation with 123.46 nM, 370.37 nM, 1,111.11 nM, 3,333.33 nM and 10,000 nM concentrations of antisense oligonucleotide, as specified in Table 45. After a treatment period of approximately 16 hours, RNA was isolated from the cells and Factor 11 mRNA levels were measured by quantitative real-time PCR. Human Factor 11 primer probe set RTS 2966 was used to measure mRNA levels. Factor 11 mRNA levels were adjusted according to total RNA content, as measured by RIBOGREEN. Results are presented as percent inhibition of Factor 11, relative to untreated control cells.
# [10] = system: human Factor 11 mRNA; test: Antisense inhibition of human Factor 11 in HepG2 cells, lipofectin, 75 nM (Example 1); format: cell-based; conditions: 75 nM antisense oligonucleotide, ~24 h, relative to untreated control cells, gapmers targeted to SEQ ID NO: 1
# Outline: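 HepG2 cells transfected via lipofectin with 75 nM antisense oligonucleotide (5-10-5 MOE gapmers, 20-mers, phosphorothioate, 5-methylcytidines), treated ~24 h. Factor 11 mRNA quantified by real-time PCR, normalised to RIBOGREEN total RNA; percent inhibition versus untreated cells.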
# [11] = system: human Factor 11 mRNA; test: Dose-dependent antisense inhibition of human Factor 11 in HepG2 cells, lipofectin 9.375-150 nM (Example 2); format: cell-based; conditions: ~16 h
# Method: Cells were plated at a density of 10,000 cells per well and transfected using lipofectin reagent with 9.375 nM, 18.75 nM, 37.5 nM, 75 nM, and 150 nM concentrations of antisense oligonucleotide, as specified in Table 3. After a treatment period of approximately 16 hours, RNA was isolated from the cells and Factor 11 mRNA levels were measured by quantitative real-time PCR. Human Factor 11 primer probe set RTS 2966 (forward sequence: […], incorporated herein as SEQ ID NO: 3; reverse sequence: […], incorporated herein as SEQ ID NO: 4; probe sequence: TTGTCTACTGAAGCACACCCAAACAGGGAX, incorporated herein as SEQ ID NO: 5) was used to measure mRNA levels. Factor 11 mRNA levels were adjusted according to total RNA content, as measured by RIBOGREEN. Results are presented as percent inhibition of Factor 11, relative to untreated control cells.
Substance,% inhibition [4],Percent inhibition of human Factor 11 mRNA levels [5],Half-Life in the liver [6],Half-life of ISIS oligonucleotides in the liver and kidney [7],Concentration [8],Viscosity [8],other results
"ISIS 416999: MOE gapmer, nucleobases 1275 to 1318 of SEQ ID NO: 1 (Table 8) (antisense GCACAGTTTCTGGCAGGCCT; MOE gapmer, wing and gap sizes not given here)",,,,,,,ALT [1]: 92 IU/L; AST [1]: 28 IU/L; Albumin [1]: 5; Bilirubin [1]: 54 mg/dL; BUN [2]: 2 mg/dL; Creatinine [2]: 4 mg/dL; HCT [3]: 5%; MCH [3]: 3; MCHC [3]: 1%; MCV [3]: 2; Platelets [3]: 12 10^3/μL; RBC [3]: 5; WBC [3]: 12 nL⁻¹; hemoglobin [3]: 6 g/dL; lymphocytes [3]: 3%; monocytes [3]: 20%; neutrophils [3]: 23%
"416867 (antisense ACTGGCAGCGGACGGCATTG; 5-10-5 gapmer, further chemistry not given here) [compound 416867]",83%,85%,18.9 days,19 days,168 mg/mL,8 cP,
"416852 (antisense TGGTGCACAGTTTCTGGCAG; 5-10-5 gapmer, further chemistry not given here) [compound 416852]",84%,87%,28.4 days,28 days,169 mg/mL,29 cP,
"416859 (antisense GACGGCATTGGTGCACAGTT; 5-10-5 gapmer, further chemistry not given here) [compound 416859]",90%,85%,19.0 days,19 days,161 mg/mL,10 cP,
"416863 (antisense CAGCGGACGGCATTGGTGCA; 5-10-5 gapmer, further chemistry not given here) [compound 416863]",83%,86%,19.8 days,20 days,165 mg/mL,9 cP,
"416860 (antisense CGGACGGCATTGGTGCACAG; 5-10-5 gapmer, further chemistry not given here) [compound 416860]",88%,89%,20.6 days,21 days,154 mg/mL,>100 cP,"Percent inhibition of Factor 11 mRNA at 123.47 nM [9]: 0%; Percent inhibition of Factor 11 mRNA at 370.37 nM [9]: 28%; Percent inhibition of Factor 11 mRNA at 1,111.11 nM [9]: 39%; Percent inhibition of Factor 11 mRNA at 3,333.33 nM [9]: 41%; Percent inhibition of Factor 11 mRNA at 10,000.0 nM [9]: 40%"
"416848 (antisense CACAGTTTCTGGCAGGCCTC; 5-10-5 gapmer, further chemistry not given here) [compound 416848]",86%,87%,23.5 days,24 days,158 mg/mL,6 cP,
"413481 (antisense GGTGCACAGTTTCTGGCAGG; 5-10-5 MOE gapmer, further chemistry not given here) [compound 413481]",,82%,20.6 days,21 days,144 mg/mL,23 cP,% inhibition [10]: 86%; percent inhibition of Factor 11 at 9.375 nM ([11]; 9.375 nM): 22%; percent inhibition of Factor 11 at 18.75 nM ([11]; 18.75 nM): 38%; percent inhibition of Factor 11 at 37.5 nM ([11]; 37.5 nM): 56%; percent inhibition of Factor 11 at 75 nM ([11]; 75 nM): 67%; percent inhibition of Factor 11 at 150 nM ([11]; 150 nM): 83%; IC50 [11]: 32 nM
"416866 (antisense CTGGCAGCGGACGGCATTGG; 5-10-5 gapmer, further chemistry not given here) [compound 416866]",88%,84%,16.0 days,16 days,166 mg/mL,>100 cP,
"416861 (antisense GCGGACGGCATTGGTGCACA; 5-10-5 gapmer, further chemistry not given here) [compound 416861]",92%,90%,24.5 days,25 days,110 mg/mL,14 cP,"Percent inhibition of Factor 11 mRNA at 123.47 nM [9]: 0%; Percent inhibition of Factor 11 mRNA at 370.37 nM [9]: 15%; Percent inhibition of Factor 11 mRNA at 1,111.11 nM [9]: 27%; Percent inhibition of Factor 11 mRNA at 3,333.33 nM [9]: 66%; Percent inhibition of Factor 11 mRNA at 10,000.0 nM [9]: 80%; IC50 [9]: 2000 nM"
"416851 (antisense GTGCACAGTTTCTGGCAGGC; 5-10-5 gapmer, further chemistry not given here) [compound 416851]",88%,89%,23.8 days,24 days,187 mg/mL,26 cP,"Percent inhibition of Factor 11 mRNA at 123.47 nM [9]: 13%; Percent inhibition of Factor 11 mRNA at 370.37 nM [9]: 35%; Percent inhibition of Factor 11 mRNA at 1,111.11 nM [9]: 36%; Percent inhibition of Factor 11 mRNA at 3,333.33 nM [9]: 64%; Percent inhibition of Factor 11 mRNA at 10,000.0 nM [9]: 72%; IC50 [9]: 1500 nM"
